Source: article PMC12680861, “Comparative analysis of LJ-4378 and tirzepatide in mouse models of obesity and weight regain” (Archives of Pharmacal Research, 2025)

Legend:
Plasma stability assay [1] = assay type: in vitro ADME, rat; details: 37 °C, 30 min
Procedure: (§1) The plasma stability of LJ-4378 was evaluated using 100% plasma obtained from human (Biochemed, BC22089NCP, sodium citrate), rat (Innovative, IRT-N, sodium citrate), and mouse (Biochemed, 029-APSC-MP, sodium citrate). 10 Μm of LJ-4378 was added to the plasma, and samples were incubated at 37 °C for 0, 30, and 120 min. At each time point, an aliquot of the plasma was removed and mixed with acetonitrile containing the internal standard, chlorpropamide (TRC, C424800). […] The supernatant was injected into the LC–MS/MS system for quantification of the remaining compound. Analysis was performed using a Nexera XR system (Shimadzu, Japan) with a TSQ Vantage mass spectrometer (Thermo, USA). […] Data acquisition was conducted in MRM mode using Xcalibur software (version 4.4). All experiments were performed in duplicate with a deviation within 15%, and the percentage of compound remaining (% Remaining) at each time point was calculated relative to the non-incubated control sample. For quality control, procaine and enalapril (each at 10 μM) were used as reference compounds and were confirmed to fall within acceptable ranges.

Plasma stability assay [2] = assay type: in vitro ADME, human; details: 37 °C, 30 min
Procedure: as §1

[3] = Pharmacokinetic study in mice, single I.V. or P.O. administration; assay type: in vivo, male C57BL/6 J mice; details: for F (oral bioavailability): dose-normalized AUCinf
Procedure: The pharmacokinetics of LJ-4378 were evaluated in male C57BL/6 J mice following a single administration by either the oral (P.O.) or intravenous (I.V.) route. For P.O., LJ-4378 was administered at 10, 20, or 50 mg/kg in a vehicle composed of 0.5 mg/mL L-ascorbic acid, 5% DMSO, 20% PEG400, 20% Tween 80, and 55% of 0.1% copovidone. For I.V. administration, a 2 mg/kg dose was delivered via tail vein injection in a vehicle consisting of 5% DMSO, 25% PEG400, and 70% sterile water. Blood samples (200 μL) were collected at 5, 15, and 30 min and 1, 2, 4, 8, 12, and 24 h post-dose for the P.O. groups, and at 2, 5, 15, and 30 min and 1, 2, 4, 8, and 12 h post-dose for the I.V. group. Plasma was separated by centrifugation, and the concentrations of LJ-4378 were determined using a validated LC–MS/MS method. Pharmacokinetic parameters were calculated using non-compartmental analysis with Phoenix WinNonlin (v8.3), and included Cmax, Tmax, AUClast, AUCinf, t1/2, and clearance (Maclean et al. [2011]). Oral bioavailability was calculated using dose-normalized AUCinf values.

CYP3A4 = CYP3A4 (Homo sapiens, UniProt P08684); experiment: CYP enzyme inhibition in pooled human liver microsomes (midazolam substrate); details: at 10 µM, 15 min
CYP3A4, sequence (P08684 whole entry, canonical isoform): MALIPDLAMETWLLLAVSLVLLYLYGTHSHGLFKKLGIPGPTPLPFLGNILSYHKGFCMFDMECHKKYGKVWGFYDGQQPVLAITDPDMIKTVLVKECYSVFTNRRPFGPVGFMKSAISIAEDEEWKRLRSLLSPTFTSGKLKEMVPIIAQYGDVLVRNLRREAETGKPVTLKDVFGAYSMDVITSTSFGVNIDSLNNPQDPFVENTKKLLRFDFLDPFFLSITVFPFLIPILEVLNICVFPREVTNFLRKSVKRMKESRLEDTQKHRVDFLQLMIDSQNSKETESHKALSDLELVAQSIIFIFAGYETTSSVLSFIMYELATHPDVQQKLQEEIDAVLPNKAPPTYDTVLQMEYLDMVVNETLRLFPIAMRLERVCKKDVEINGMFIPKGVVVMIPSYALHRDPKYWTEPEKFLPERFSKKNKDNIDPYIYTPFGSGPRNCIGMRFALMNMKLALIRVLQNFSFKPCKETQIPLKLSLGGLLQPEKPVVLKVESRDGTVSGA
Procedure: (§2) Cytochrome 450 (CYP) enzyme inhibition was evaluated using pooled human liver microsomes (Corning, #452117). […] Substrates and corresponding metabolites for each CYP isoform were as follows: phenacetin and acetaminophen for CYP1A2 (Sigma Aldrich, #77440 and A7085, respectively), diclofenac and 4'-hydroxydiclofenac for CYP2C9 (Sigma Aldrich, D6899; TRC, H825225), S-mephenytoin and 4'-hydroxymephenytoin for CYP2C19 (Sigma Aldrich, UC175; Santacruz, sc210197), dextromethorphan and dextrorphan for CYP2D6 (Sigma Aldrich, #81091 and UC205), and midazolam and 1'-hydroxymidazolam for CYP3A4 (KFDA; Sigma Aldrich, UC430).
(§3) Samples were preincubated at 37 °C for 5 min, and the reaction was initiated by the addition of the NADPH regeneration system, followed by incubation at 37 °C for 15 min. The reaction was terminated by adding acetonitrile containing the internal standard, and centrifuged at 15,000 rpm for 5 min at 4 °C. The supernatant was analyzed by LC–MS/MS using a Nexera XR system (Shimadzu, Japan) coupled with a TSQ Vantage mass spectrometer (Thermo, USA). […] Metabolites were quantified in multiple reaction monitoring (MRM) mode with Xcalibur software (version 4.4).
(§4) All experiments were performed in duplicate with variability ≤ 15%. The percent activity of each CYP enzyme was calculated based on metabolite formation relative to the no-inhibitor control.

[4] = Preliminary study, I.V. bolus administration to mice; assay type: in vivo
CYP1A2 = target: T1, CYP1A2 (Homo sapiens, UniProt P05177); experiment: CYP enzyme inhibition in pooled human liver microsomes (phenacetin substrate); details: microsomes, 10 µM
T1 sequence (P05177 1-516): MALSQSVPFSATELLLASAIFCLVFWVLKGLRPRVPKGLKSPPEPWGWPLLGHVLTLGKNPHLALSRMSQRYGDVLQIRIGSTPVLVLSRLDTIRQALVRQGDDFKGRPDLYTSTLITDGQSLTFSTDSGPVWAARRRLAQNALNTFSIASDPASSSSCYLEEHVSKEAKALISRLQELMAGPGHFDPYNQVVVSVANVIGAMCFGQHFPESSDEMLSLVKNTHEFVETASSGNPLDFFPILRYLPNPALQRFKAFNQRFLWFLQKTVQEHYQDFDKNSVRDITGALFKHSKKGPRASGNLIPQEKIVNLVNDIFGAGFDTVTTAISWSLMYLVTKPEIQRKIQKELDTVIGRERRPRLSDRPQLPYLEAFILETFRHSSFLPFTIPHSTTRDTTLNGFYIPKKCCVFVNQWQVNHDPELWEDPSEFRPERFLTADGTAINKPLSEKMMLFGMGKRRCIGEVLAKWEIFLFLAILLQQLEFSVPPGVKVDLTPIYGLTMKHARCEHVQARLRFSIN
Procedure: as §2, §3, §4

CYP2C9 = CYP2C9 (Homo sapiens, UniProt P11712); experiment: CYP enzyme inhibition in pooled human liver microsomes (diclofenac substrate); details: microsomes, 10 µM
CYP2C9, sequence (P11712 whole entry): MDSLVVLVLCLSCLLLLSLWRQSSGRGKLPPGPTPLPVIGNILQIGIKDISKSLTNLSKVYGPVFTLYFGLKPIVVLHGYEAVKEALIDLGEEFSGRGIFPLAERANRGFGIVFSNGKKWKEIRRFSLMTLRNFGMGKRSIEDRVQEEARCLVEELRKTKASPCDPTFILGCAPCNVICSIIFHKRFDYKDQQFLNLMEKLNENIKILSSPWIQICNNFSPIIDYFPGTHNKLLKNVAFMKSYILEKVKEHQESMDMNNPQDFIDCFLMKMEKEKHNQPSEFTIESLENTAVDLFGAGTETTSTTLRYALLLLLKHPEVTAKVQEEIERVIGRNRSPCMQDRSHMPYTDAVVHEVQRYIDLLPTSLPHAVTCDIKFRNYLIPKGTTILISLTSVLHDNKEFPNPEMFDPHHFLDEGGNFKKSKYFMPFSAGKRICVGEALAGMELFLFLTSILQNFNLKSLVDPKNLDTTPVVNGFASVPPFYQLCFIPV
Procedure: as §2, §3, §4

CYP2C19 = CYP2C19 (Homo sapiens, UniProt P33261); experiment: CYP enzyme inhibition in pooled human liver microsomes (S-mephenytoin substrate); details: microsomes, 10 µM
CYP2C19, sequence (P33261 whole entry): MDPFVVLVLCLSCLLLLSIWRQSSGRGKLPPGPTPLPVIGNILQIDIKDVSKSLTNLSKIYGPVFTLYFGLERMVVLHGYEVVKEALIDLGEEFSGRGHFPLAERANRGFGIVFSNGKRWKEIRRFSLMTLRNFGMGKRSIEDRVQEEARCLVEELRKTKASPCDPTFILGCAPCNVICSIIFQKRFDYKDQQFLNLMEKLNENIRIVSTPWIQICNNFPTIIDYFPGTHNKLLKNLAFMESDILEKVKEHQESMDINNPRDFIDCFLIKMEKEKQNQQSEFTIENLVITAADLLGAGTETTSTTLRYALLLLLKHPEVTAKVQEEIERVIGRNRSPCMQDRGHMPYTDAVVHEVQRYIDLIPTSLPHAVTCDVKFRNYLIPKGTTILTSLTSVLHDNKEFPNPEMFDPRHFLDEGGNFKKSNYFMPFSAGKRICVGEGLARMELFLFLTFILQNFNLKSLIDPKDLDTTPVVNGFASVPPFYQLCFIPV
Procedure: as §2, §3, §4

Structure (SMILES): CCCCC#Cc1nc(N)c2ncn([C@@H]3SC[C@@H](O)[C@H]3O)c2n1 [LJ-4378]
- % Remaining compound, Rat plasma 30 min (Plasma stability assay [1]): > 100%
- % Remaining compound, Human plasma 30 min (Plasma stability assay [2]): 97.0%
- AUC0-t ([3]; I.V. 2.00 mg/kg): 0.41145 µg·h/mL
- CL ([3]; I.V. 2.00 mg/kg): 80.7 (mL/min)/kg
- Cmax ([3]; I.V. 2.00 mg/kg): 2.39523 µg/mL
- Tmax ([3]; I.V. 2.00 mg/kg): 1.8 min
- t1/2 ([3]; I.V. 2.00 mg/kg): 27.6 min
- AUC0-t ([3]; P.O. 10.00 mg/kg): 1.27367 µg·h/mL
- CL ([3]; P.O. 10.00 mg/kg): 128.5 (mL/min)/kg
- Cmax ([3]; P.O. 10.00 mg/kg): 1.22057 µg/mL
- Tmax ([3]; P.O. 10.00 mg/kg): 4.8 min
- t1/2 ([3]; P.O. 10.00 mg/kg): 158 min
- F (oral bioavailability) ([3]; P.O. 10.00 mg/kg): 62.93%
- AUC0-t ([3]; P.O. 20.00 mg/kg): 3.06721 µg·h/mL
- CL ([3]; P.O. 20.00 mg/kg): 103.2 (mL/min)/kg
- Cmax ([3]; P.O. 20.00 mg/kg): 2.40174 µg/mL
- Tmax ([3]; P.O. 20.00 mg/kg): 15 min
- t1/2 ([3]; P.O. 20.00 mg/kg): 233 min
- F (oral bioavailability) ([3]; P.O. 20.00 mg/kg): 78.42%
- AUC0-t ([3]; P.O. 50.00 mg/kg): 8.44678 µg·h/mL
- CL ([3]; P.O. 50.00 mg/kg): 93.0 (mL/min)/kg
- Cmax ([3]; P.O. 50.00 mg/kg): 5.3076 µg/mL
- Tmax ([3]; P.O. 50.00 mg/kg): 30 min
- t1/2 ([3]; P.O. 50.00 mg/kg): 187 min
- F (oral bioavailability) ([3]; P.O. 50.00 mg/kg): 86.08%
- % of control activity CYP3A4 (CYP3A4): 96.9%
- terminal phase half-life [4]: approximately 0.29 h
- % of control activity CYP1A2 (CYP1A2): 82.2%
- % of control activity CYP2C9 (CYP2C9): 95.8%
- % of control activity CYP2C19 (CYP2C19): 85.3%
